Reference: patent US20260159481A1, “INDOLE DERIVATIVE WITH SUBSTITUENT AND PHARMACEUTICAL USE” (MITOIMMUNE THERAPEUTICS INC., priority 2023, published 2026)
Each block holds one compound with its values, some of them ahead of it.

What was measured:
cardiac cells (H9C2) [1] = experiment: Protective effect against t-BHP-induced cell death in cardiac cells (LDH release); type: cell-based; settings: Rattus norvegicus, t-BHP 400 PM, 2 hours, read-out: EC50, protective effect against cell death due to t-BHP induction
Protocol: To confirm a protective effect on cardiac cells, H9C2 cells were seeded at 1.5×10^4 cells/well in a 96-well plate and cultured for 24 hours. The example compounds were diluted to have the final concentration of 0.001, 0.01, 0.03, 0.1, 0.3, 1, 3, 10, and 30 PM, respectively, and then added to different wells, and the resulting cells were cultured for 15 to 20 minutes. Tert-butyl hydroperoxide (t-BHP) was treated to have the final concentration of 400 PM, and the resulting cells were cultured for 2 hours. To confirm the cell death protection effect of each compound, the degree of extracellular secretion of lactate dehydrogenase (LDH) was measured using a cytotoxicity LDH assay kit [Dojindo; CK12]. Briefly, after 2 hours of t-BHP treatment on the cells, 70 μL of the supernatant was taken from the 96-well plate where the cells were cultured and transferred to a new 96-well plate. The assay buffer included in the kit was added at 70 μL/well (equal to that of the sample) and the plate was covered with foil to block light and allowed to react for 15 minutes at room temperature. While observing a color change of each sample, 35 μL/well of a stop solution was added, an absorbance at 490 nm was measured using an iD3 spectrophotometer, and an EC50 value was calculated.

cardiac cells (H9C2) [2] = experiment: Protective effect against cell death due to RSL3 (LDH release), H9C2; type: cell-based; settings: Rattus norvegicus, RSL3 0.5 μM, 24 hours
Protocol: (§1) To confirm cell death protection effects on cardiac cells, adrenal medullary cells, renal fibroblasts, retinal epithelial cells, lung epithelial cells, renal proximal tubular epithelial cells, hippocampal neurons and fibroblasts, each type of cells were seeded at 4×10^3 to 1.2×10^4 cells/well in a 96-well plate and cultured for 18 to 24 hours. The example compounds were diluted to have the final concentration of 0.001, 0.003, 0.01, 0.3, 1, 3, and 10 μM, respectively, and then added to different wells and cultured for 15 to 20 minutes. […] To confirm the cell death protection effect of the example compounds, the degree of extracellular secretion of lactate dehydrogenase (LDH) was measured using a cytotoxicity LDH assay kit [Dojindo; CK12]. Briefly, at the end of 24-hour treatment of each type of cells with RSL3, 70 μL of the supernatant was taken from the 96-well plate where the cells were cultured and transferred to a new 96-well plate. The assay buffer included in the kit was added at 70 μL/well (equal to that of the sample) and the plate was covered with foil to block light and allowed to react for 15 to 20 minutes at room temperature. While observing a color change of the sample, 35 µL/well of a stop solution was added, an absorbance at 490 nm was measured using an iD3 spectrophotometer, and an EC50 value was calculated.

[3] = tested on: renal fibroblasts (NRK-49F); experiment: Protective effect against cell death due to RSL3 (LDH release), NRK-49F; type: cell-based; settings: Rattus norvegicus, RSL3 3 μM, 24 hours
Protocol: as §1

[4] = tested on: lung epithelial cells (MLE-12); experiment: Protective effect against cell death due to RSL3 (LDH release), MLE-12; type: cell-based; settings: MLE12, RSL3 1 μM, 24 hours
Protocol: as §1

[5] = tested on: retinal epithelial cells (ARPE-19); experiment: Protective effect against cell death due to RSL3 (LDH release), ARPE-19; type: cell-based; settings: Homo sapiens, RSL3 0.3 μM, 24 hours
Protocol: as §1

[6] = tested on: adrenal medullary cells (PC-12); experiment: Protective effect against cell death due to RSL3 (LDH release), PC-12; type: cell-based; settings: Rattus norvegicus, RSL3 0.3 μM, 24 hours
Protocol: as §1

[7] = tested on: renal proximal tubular epithelial cells (HK2); experiment: Protective effect against cell death due to RSL3 (LDH release), HK2; type: cell-based; settings: Epithelial cell, RSL3 0.3 μM, 24 hours
Protocol: as §1

[8] = tested on: hippocampal neurons (HT-22); experiment: Protective effect against cell death due to RSL3 (LDH release), HT-22; type: cell-based; settings: Mus musculus, RSL3 0.3 μM, 24 hours
Protocol: as §1

fibroblasts (NIH/3T3) = experiment: Protective effect against cell death due to RSL3 (LDH release), NIH/3T3; type: cell-based; settings: Mus musculus, NIH3T3, RSL3 3 μM, 24 hours
Protocol: as §1

[9] = Pharmacokinetics in plasma after oral administration to ICR mice; type: in vivo; settings: oral 10 mg/kg, plasma
Protocol: Pharmacokinetic parameters may include the maximum plasma concentration (Cmax), the time to reach the maximum plasma concentration (Tmax), the area under the plasma concentration-time curve (AUCinf), and a half-life (t1/2).
Example Compound 27 was orally administered to ICR mice at a dose of 10 mg/kg. Drug concentrations in the plasma of mice were measured by HPLC-MS/MS spectroscopy 0.5, 1, 2, 4, 8, or 24 hours after administration.
The comparative example compound was orally administered to ICR mice at a dose of 10 mg/kg. The drug concentrations in the plasma of the mice were measured by HPLC-MS/MS 0.5, 1, 2, 4, 8, or 24 hours after administration.

Compound: CCN(CC)C(=O)Cc1cc(NCc2ccccc2)c2[nH]c(-c3ccccc3)cc2c1 [Example 14, 2-(7-(benzylamino)-2-phenyl-1H-indol-5-yl)-N,N-diethylacetamide]
- EC50 (cardiac cells (H9C2) [1]): 0.3 to 1 µM
- EC50 (cardiac cells (H9C2) [2]): ≤ 0.1 µM
- EC50 [3]: ≤ 0.1 µM
- EC50 [4]: ≤ 0.1 µM
- EC50 [5]: ≤ 0.1 µM
- EC50 [6]: ≤ 0.1 µM
- EC50 [7]: ≤ 0.1 µM
- EC50 [8]: 0.1 to 1 µM
- EC50 (fibroblasts (NIH/3T3)): 0.1 to 1 µM

Compound: CCNS(=O)(=O)c1cc(NC2CCCC2)c2[nH]c(-c3ccccc3)cc2c1 [Example 22, 7-(cyclopentylamino)-N-ethyl-2-phenyl-1H-indole-5-sulfonamide]
- EC50 (cardiac cells (H9C2) [1]): 0.3 to 1 µM
- EC50 (cardiac cells (H9C2) [2]): ≤ 0.1 µM
- EC50 [3]: ≤ 0.1 µM
- EC50 [4]: 0.1 to 1 µM
- EC50 [5]: ≤ 0.1 µM
- EC50 [6]: 0.1 to 1 µM
- EC50 [7]: ≤ 0.1 µM
- EC50 [8]: 0.1 to 1 µM
- EC50 (fibroblasts (NIH/3T3)): 0.1 to 1 µM

Compound: c1ccc(-c2cc3cc(COCCN4CCOCC4)cc(NC4CCCC4)c3[nH]2)cc1 [Example 41, N-cyclopentyl-5-((2-morpholinoethoxy)methyl)-2-phenyl-1H-indol-7-amine]
- EC50 (cardiac cells (H9C2) [1]): ≤ 0.3 µM
- EC50 (cardiac cells (H9C2) [2]): ≤ 0.1 µM
- EC50 [3]: ≤ 0.1 µM
- EC50 [4]: ≤ 0.1 µM
- EC50 [5]: ≤ 0.1 µM
- EC50 [6]: ≤ 0.1 µM
- EC50 [7]: ≤ 0.1 µM
- EC50 [8]: ≤ 0.1 µM
- EC50 (fibroblasts (NIH/3T3)): 0.1 to 1 µM

Compound: FC(F)COCc1cc(NC2CCOCC2)c2[nH]c(-c3ccccc3)cc2c1 [Example 40, 5-((2,2-difluoroethoxy)methyl)-2-phenyl-N-(tetrahydro-2H-pyran-4-yl)-1H-indol-7-amine]
- EC50 (cardiac cells (H9C2) [1]): ≤ 0.3 µM
- EC50 (cardiac cells (H9C2) [2]): ≤ 0.1 µM
- EC50 [3]: ≤ 0.1 µM
- EC50 [4]: ≤ 0.1 µM
- EC50 [5]: ≤ 0.1 µM
- EC50 [6]: ≤ 0.1 µM
- EC50 [7]: ≤ 0.1 µM
- EC50 [8]: ≤ 0.1 µM
- EC50 (fibroblasts (NIH/3T3)): 0.1 to 1 µM

- Cmax ([9]; mouse): 2.11 µg/mL
- Tmax ([9]; mouse): 1 h
- half-life ([9]; mouse): 1.4 h
- concentration at 0.5 h ([9]; mouse, 0.5 hr): 1.64 µg/mL
- concentration at 1 h ([9]; mouse, 1 hr): 2.11 µg/mL
- concentration at 2 h ([9]; mouse, 2 hr): 1.12 µg/mL
- concentration at 4 h ([9]; mouse, 4 hr): 0.389 µg/mL
- concentration at 8 h ([9]; mouse, 8 hr): 0.051 µg/mL
- AUCinf [9]: 5,459 ng · hr/mL
- area under the plasma concentration-time curve (AUCinf) [9]: 5.46 µg·h/mL
Compound: OCc1cc(NC2CCCC2)c2[nH]c(-c3ccccc3)cc2c1 [Comparative Example, [7-(cyclopentylamino)-2-phenyl-1H-indol-5-yl]methanol, reference compound]

Compound: CCC(O)(CC)COCCOCc1cc(NC2CCOCC2)c2[nH]c(-c3ccccc3)cc2c1 [Example 32, 3-((2-((2-phenyl-7-((tetrahydro-2H-pyran-4-yl)amino)-1H-indol-5-yl)methoxy)ethoxy)methyl)pentan-3-ol]
- EC50 (cardiac cells (H9C2) [1]): ≤ 0.3 µM

Compound: O=S1(=O)CCN(CCOCc2cc(NC3CCOCC3)c3[nH]c(-c4ccccc4)cc3c2)CC1 [Example 47, 4-(2-((2-phenyl-7-((tetrahydro-2H-pyran-4-yl)amino)-1H-indol-5-yl)methoxy)ethyl)thiomorpholine 1,1-dioxide]
- EC50 (cardiac cells (H9C2) [1]): 0.3 to 1 µM

Compound: CS(=O)(=O)CCOCc1cc(NC2CCCC2)c2[nH]c(-c3ccccc3)cc2c1 [Example 44, N-cyclopentyl-5-((2-(methylsulfonyl)ethoxy)methyl)-2-phenyl-1H-indol-7-amine]
- EC50 (cardiac cells (H9C2) [1]): ≤ 0.3 µM

Compound: CNC(=O)Cc1cc(NC2CCCC2)c2[nH]c(-c3ccccc3)cc2c1 [Example 16, 2-(7-(cyclopentylamino)-2-phenyl-1H-indol-5-yl)-N-methylacetamide]
- EC50 (cardiac cells (H9C2) [1]): ≤ 0.3 µM

Compound: COCCN(C)Cc1cc(NC2CCOCC2)c2[nH]c(-c3ccccc3)cc2c1 [Example 55, 5-(((2-methoxyethyl)(methyl)amino)methyl)-2-phenyl-N-(tetrahydro-2H-pyran-4-yl)-1H-indol-7-amine]
- EC50 (cardiac cells (H9C2) [1]): ≤ 0.3 µM

Compound: COCCN(C)CCOCc1cc(NC2CCOCC2)c2[nH]c(-c3ccccc3)cc2c1 [Example 61, 5-((2-((2-methoxyethyl)(methyl)amino)ethoxy)methyl)-2-phenyl-N-(tetrahydro-2H-pyran-4-yl)-1H-indol-7-amine]
- EC50 (cardiac cells (H9C2) [1]): ≤ 0.3 µM

Compound: OC1CCC(OCc2cc(NC3CCOCC3)c3[nH]c(-c4ccccc4)cc3c2)CC1 (stereo not shown) [Example 35, 4-((2-phenyl-7-((tetrahydro-2H-pyran-4-yl)amino)-1H-indol-5-yl)methoxy)cyclohexan-1-ol]
- EC50 (cardiac cells (H9C2) [1]): ≤ 0.3 µM

Compound: c1ccc(-c2cc3cc(COC4CCOCC4)cc(NC4CCOCC4)c3[nH]2)cc1 [Example 37, 2-phenyl-N-(tetrahydro-2H-pyran-4-yl)-5-(((tetrahydro-2H-pyran-4-yl)oxy)methyl)-1H-indol-7-amine]
- EC50 (cardiac cells (H9C2) [1]): ≤ 0.3 µM

Compound: O=C(Cc1cc(NC2CCOCC2)c2[nH]c(-c3ccccc3)cc2c1)Nc1ccccc1 [Example 19, N-phenyl-2-(2-phenyl-7-((tetrahydro-2H-pyran-4-yl)amino)-1H-indo1-5-yl)acetamide]
- EC50 (cardiac cells (H9C2) [1]): ≤ 0.3 µM

Compound: CN(CCO)CCOCc1cc(NC2CCOCC2)c2[nH]c(-c3ccccc3)cc2c1 [Example 53, 2-(methyl(2-((2-phenyl-7-((tetrahydro-2H-pyran-4-yl)amino)-1H-indol-5-yl)methoxy)ethyl)amino)ethan-1-ol]
- EC50 (cardiac cells (H9C2) [1]): ≤ 0.3 µM

Compound: CC1(O)CCC(OCc2cc(NC3CCOCC3)c3[nH]c(-c4ccccc4)cc3c2)CC1 (stereo not shown) [Example 36, 1-methyl-4-((2-phenyl-7-((tetrahydro-2H-pyran-4-yl)amino)-1H-indol-5-yl)methoxy)cyclohexan-1-ol]
- EC50 (cardiac cells (H9C2) [1]): ≤ 0.3 µM
- EC50 (cardiac cells (H9C2) [2]): ≤ 0.1 µM
- EC50 [3]: ≤ 0.1 µM
- EC50 [4]: 0.1 to 1 µM
- EC50 [5]: ≤ 0.1 µM
- EC50 [6]: 0.1 to 1 µM
- EC50 [7]: ≤ 0.1 µM
- EC50 [8]: 0.1 to 1 µM
- EC50 (fibroblasts (NIH/3T3)): 0.1 to 1 µM

Compound: OCCOCCc1cc(NC2CCOCC2)c2[nH]c(-c3ccccc3)cc2c1 [Example 33, 2-(2-(2-phenyl-7-((tetrahydro-2H-pyran-4-yl)amino)-1H-indol-5-yl)ethoxy)ethan-1-ol]
- EC50 (cardiac cells (H9C2) [1]): ≤ 0.3 µM

Compound: O=C(NC1CC1)c1cc(NCc2ccccc2)c2[nH]c(-c3ccccc3)cc2c1 [Example 7, 7-(benzylamino)-N-cyclopropyl-2-phenyl-1H-indole-5-carboxamide]
- EC50 (cardiac cells (H9C2) [1]): ≤ 0.3 µM

Compound: O=C(NC1CC1)c1cc(NCc2ccncc2)c2[nH]c(-c3ccccc3)cc2c1 [Example 8, N-cyclopropyl-2-phenyl-7-((pyridin-4-ylmethyl)amino)-1H-indole-5-carboxamide]
- EC50 (cardiac cells (H9C2) [1]): ≤ 0.3 µM
- EC50 (cardiac cells (H9C2) [2]): 0.1 to 1 µM
- EC50 [3]: 0.1 to 1 µM
- EC50 [4]: 0.1 to 1 µM
- EC50 [5]: ≤ 0.1 µM
- EC50 [6]: 0.1 to 1 µM
- EC50 [7]: 0.1 to 1 µM
- EC50 [8]: > 1 µM
- EC50 (fibroblasts (NIH/3T3)): 0.1 to 1 µM

Compound: CC(C)(O)C#Cc1cc(NC2CCOCC2)c2[nH]c(-c3ccccc3)cc2c1 [Example 24, 2-methyl-4-(2-phenyl-7-((tetrahydro-2H-pyran-4-yl)amino)-1H-indol-5-yl)but-3-yn-2-ol]
- EC50 (cardiac cells (H9C2) [1]): ≤ 0.3 µM

Compound: O=C(Nc1ccccc1)c1cc(NC2CCOCC2)c2[nH]c(-c3ccccc3)cc2c1 [Example 9, N,2-diphenyl-7-((tetrahydro-2H-pyran-4-yl)amino)-1H-indole-5-carboxamide]
- EC50 (cardiac cells (H9C2) [1]): 0.3 to 1 µM

Compound: c1ccc(-c2cc3cc(COCCN4CCOCC4)cc(NC4CCOCC4)c3[nH]2)cc1 [Example 42, 5-((2-morpholinoethoxy)methyl)-2-phenyl-N-(tetrahydro-2H-pyran-4-yl)-1H-indol-7-amine]
- EC50 (cardiac cells (H9C2) [1]): ≤ 0.3 µM
